Patent publication US11534457B2, “Use of dextran sulfate” (priority 2017, dated 2022)

Test system: LPS system [PBMC and HUVEC+LPS (TLR4 ligand)]
Experiment: BioMAP LPS system
Assay type: cell-based, Human
Text: In this study LMW-DS was characterized by profiling in the BioMAP® Diversity PLUS panel. The BioMAP® panel consists of human primary cell-based systems designed to model different aspects of the human body in an in vitro format. The 12 systems in the BioMAP® Diversity PLUS panel (Table 32) allow test agent characterization in an unbiased way across a broad set of systems modeling various human disease states. The BioMA®P systems are constructed with one or more primary cell types from healthy human donors, with stimuli, such as cytokines or growth factors, added to capture relevant signaling networks that naturally occur in human tissue or pathological conditions. […]
Systems are derived from either single cell types or co-culture systems. […] Test agents prepared in either DMSO (small molecules; final concentration 0.1%) or PBS (biologics) are added at the indicated concentrations 1-hr before stimulation, and remain in culture for 24-hrs or as otherwise indicated (48-hrs, MyoF system; 72-hrs, BT system (soluble readouts); 168-hrs, BT system (secreted IgG)). […] Soluble factors from supernatants are quantified using either HTRF® detection, bead-based multiplex immunoassay or capture ELISA. Overt adverse effects of test agents on cell proliferation and viability (cytotoxicity) are detected by sulforhodamine B (SRB) staining, for adherent cells, and alamarBlue® reduction for cells in suspension. […]

“low molecular weight dextran sulfate [LMW-DS]” was tested, and the Decreased biomarker activity was “sTNFα” and the Increased biomarker activity was “IL-8”.
